Experiment [1] has as its system human ovarian cancer cell A2780. Put plainly: proliferation inhibitory activity against A2780 cells (CellTiter-Glo). The class given is cell-based. The note with it: A2780, 72 h, 1 μM test compound, 3 days of culture, read-out: proliferation inhibitory rate (%) of A2780 cells.
The target of a further experiment is T1, human PRS protein (Homo sapiens, UniProt P07814).
T1 construct: to construct His-Avi-hEPRS (998-1512) expression plasmid; His tag (N); Avi tag (N); TEV cleavage site (ENLYFQ/GS, encoded by forward primer hEPRS-TEV-NheF) (N); made in house; host or cells: E. coli BL21(DE3)
T1 sequence (P07814 998-1512): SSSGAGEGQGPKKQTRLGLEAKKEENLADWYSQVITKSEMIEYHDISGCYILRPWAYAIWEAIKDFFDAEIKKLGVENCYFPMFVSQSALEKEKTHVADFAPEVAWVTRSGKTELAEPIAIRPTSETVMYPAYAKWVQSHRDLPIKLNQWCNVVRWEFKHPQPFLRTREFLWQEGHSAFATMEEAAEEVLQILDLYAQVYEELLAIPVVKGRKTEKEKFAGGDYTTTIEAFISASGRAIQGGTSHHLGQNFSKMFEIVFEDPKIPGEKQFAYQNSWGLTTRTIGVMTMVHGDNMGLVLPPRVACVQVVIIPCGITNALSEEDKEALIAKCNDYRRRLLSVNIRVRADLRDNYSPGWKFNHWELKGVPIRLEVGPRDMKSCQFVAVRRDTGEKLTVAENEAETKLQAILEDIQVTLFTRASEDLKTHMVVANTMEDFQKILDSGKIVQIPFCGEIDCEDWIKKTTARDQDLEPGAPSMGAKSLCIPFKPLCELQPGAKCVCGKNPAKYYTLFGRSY
Put plainly: PRS inhibitory activity (ATP/[32P]pyrophosphate exchange enzyme reaction). The class given is biochemical. The note with it: 300 nM test compound; recombinant human PRS (EPRS 998-1512); read-out: inhibitory rate (%) of PRS. The method in brief: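 His-Avi-tagged human EPRS catalytic domain (998-1512), E. coli-expressed, was preincubated 60 min with compound (enzyme added as 40 nM solution) in Tris pH 7.5, KCl, DTT, Tween 20 and MgCl2. The substrate solution contained 300 μM ATP, 160 μM L-proline, and 400 μM pyrophosphate with [32P]pyrophosphate; reaction ran 30 min at room temperature. Charcoal-captured label was counted, with enzyme-free wells taken as 100% inhibition.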

Take `N#C[C@@]1(C2CC2)CCN(c2ccnc(NC(=O)Cc3cccc(-c4ccncc4)c3)c2)C1=O` [Example 29, N-(4-((3S)-3-cyano-3-cyclopropyl-2-oxopyrrolidin-1-yl)pyridin-2-yl)-2-(3-(pyridin-4-yl)phenyl)acetamide]: the inhibition at 1 µM in experiment [1] was determined as 60%. For the same compound, the inhibition at 0.3 µM on human PRS protein stood at 97%.

Turning to `COCCCn1cc(-c2cccc(CC(=O)Nc3cc(N4CC[C@@](C#N)(C5CC5)C4=O)ccn3)c2)cn1` [Example 74, N-(4-((3S)-3-cyano-3-cyclopropyl-2-oxopyrrolidin-1-yl)pyridin-2-yl)-2-(3-(1-(3-methoxypropyl)-1H-pyrazol-4-yl)phenyl)acetamide], the inhibition at 1 µM in experiment [1] worked out at 62%. The inhibition at 0.3 µM at human PRS protein turned out to be 98%.

`Cc1cc(-c2cccc(CC(=O)Nc3cc(N4CC[C@@](C#N)(C5CC5)C4=O)cc(C)n3)c2)cnn1` [Example 103, N-(4-((3S)-3-cyano-3-cyclopropyl-2-oxopyrrolidin-1-yl)-6-methylpyridin-2-yl)-2-(3-(6-methylpyridazin-4-yl)phenyl)acetamide]: the inhibition at 1 µM in experiment [1] was 67%. In addition, the inhibition at 0.3 µM on human PRS protein amounted to 97%.

Turning to `CC(C)Cn1cc(-c2cccc(CC(=O)Nc3cc(N4CC[C@@](C#N)(C5CC5)C4=O)ccn3)c2)cn1` [Example 68, N-(4-((3S)-3-cyano-3-cyclopropyl-2-oxopyrrolidin-1-yl)pyridin-2-yl)-2-(3-(1-isobutyl-1H-pyrazol-4-yl)phenyl)acetamide], the inhibition at 1 µM in experiment [1] is 51%. Further, the inhibition at 0.3 µM on human PRS protein amounted to 98%.

The values above are taken from patent publication US10800754B2, “Heterocyclic amide compound” (TAKEDA PHARMACEUTICAL COMPANY LIMITED, priority 2016, dated 2020).
